Laboratory results: patent publication US20240269050A1, “ELECT[…] FOR DELIVERING A COMPOSITION COMPRISING AT LEAST ONE HYDROXY ACID COMPOUND” (L'OREAL, priority 2021, published 2024)

Settings: composition applied with electroporation (Fusion Meso Xpert, ftrain 0.4 Hz, negative polarity) compared with topical application of an identical composition; human skin sample; FIG. 5
From the text: To test the effect of the device, a sample of human skin is peripherally attached to a support, with the counterelectrode of the electroporation device placed between the inner face of the skin and the support. The electrode of the electroporation device is placed in contact with the outer face of the skin sample. The case of the electroporation device is immobilized by a support. The support is placed on an orbital shaker, so that the electrode moves over the surface of the skin.
The frequency (ftrain) with which the pulse trains follow each other is 0.4 Hz, the duration Ton ranges from 0.5 to 2 seconds, and the chosen polarity is negative, i.e. the electrode is at a negative potential with respect to the counterelectrode. The apparatus is used in the highest energy mode. […] The pulses of frequency fpulse are, for example, of maximum amplitude deltaV, within the pulse train, this amplitude deltaV being less than or equal to 30% of the voltage Vmean, as an absolute value.
The cosmetic compositions are applied before the apparatus is put in place.
Firstly, compositions 1 to 3 are applied topically, and secondly, the application of compositions 1 to 3 is combined with electroporation.
The skin is removed from the experimental system and then analysed to determine the amount of salicylic acid that has penetrated.

SMILES: O=C(O)c1ccccc1O [salicylic acid]
- amount of salicylic acid that has penetrated: much higher
